Measured values published in publication PMC10218704, “A Novel Blood–Brain Barrier-Penetrating and Vascular-Targeting Chimeric Peptide Inhibits Glioma Angiogenesis” (International Journal of Molecular Sciences, 2023).
Ends that are not written are not given here.

Experiments:
SRC = test: Western blot, phosphorylation of SRC; assay type: cell-based, human; conditions: 320 μmol/L, 90 min, VEGF-A165 30 ng/mL, HUVECs, vs control, AT7, TAT, n = 3
Protocol: (§1) For Western blotting analysis, HUVECs were seeded into 6-well culture plates at 3 × 10^5 cells/well and incubated overnight. […] Two control groups (F-12K medium in the absence or presence of VEGF-A165) were set. The cells were washed with cold PBS and lysed with lysis buffer (protease and phosphatase inhibitors) on the ice for 30 min, and then centrifuged at 4 °C for 15 min at 14,000 r/min. The supernatant was collected, and its total protein concentration was determined by the BCA protein assay kit. Equal amounts of proteins were separated by 10% SDS-PAGE gels and transferred to polyvinylidene difluoride (PVDF) membranes. After blocking with 5% non-fat milk for 1 h, the membranes were incubated with specific antibodies at 4 °C overnight. Then, the membranes were washed with TBST (Tris-Buffered Saline with 0.1% Tween 20) and incubated with horseradish peroxidase (HRP)-conjugated secondary antibody for 1 h at room temperature. The proteins on the membranes were visualized with enhanced chemiluminescence agents.

[1] = Body weight and physiological status of glioma-bearing nude mice; assay type: in vivo; conditions: 20 mg/kg/day i.v., 11 days
Protocol: The orthotopic U87-mCherry-luc glioma-bearing nude mice were randomly assigned to 6 groups (n = 5) according to the bioluminescence intensity of glioma measured on day 4. […] The bioluminescence intensity was measured on days 4, 7, 11, and 14, respectively. Nude mice were weighed daily. On day 15, the mice were sacrificed, and the glioma-bearing brains were harvested. The brain tissues were fixed with 4.0% paraformaldehyde, embedded in paraffin, and cut into slices. The TUNEL staining and CD31 immunohistochemical staining were conducted according to standard histological procedures.

HUVECs [2] = test: Transwell invasion assay; assay type: cell-based, human; conditions: 160 μmol/L; VEGF-A165 30 ng/mL; 24 h; n = 3
Protocol: Matrigel was diluted in serum-free F-12K medium (dilution ratio 1:5) and was coated onto each transwell chamber and incubated at 37 °C for 2 h. HUVECs were seeded in the upper compartment of the transwell chamber at a density of 2 × 10^4 cells/well. F-12K medium (containing 20% serum) was added to the lower chamber. […] Then, the medium was aspirated, and the chambers were washed with PBS and placed in a fixative for 30 min, stained with 0.1% crystal violet for 30 min, washed with PBS, and dried. An inverted fluorescence microscope was used to photograph the chambers, and the number of invaded cells was counted. The cells that migrated to the bottom of the chamber were photographed with an inverted microscope.

FAK = test: Western blot, phosphorylation of FAK; assay type: cell-based, human; conditions: 320 μmol/L, 90 min, VEGF-A165 30 ng/mL, HUVECs, vs control, AT7, TAT, n = 3
Protocol: as §1

red blood cells = test: Hemolysis assay; conditions: 2.5–640 μmol/L; 37 °C, 1 h; 540 nm; mouse red blood cells; n = 3
Protocol: The fresh blood of mice was centrifuged at 2000 r/min for 10 min, and the upper layer of serum was discarded, then mixed with normal saline and centrifuged at 2000 r/min for 10 min, repeated three times, and the supernatant was removed to obtain the lower layer of red blood cells. Then, 1 mL of red blood cells was diluted to 50 mL with normal saline. […] The samples were incubated at 37 °C for 1 h, centrifuged at 2000 r/min for 10 min, and photographed. Light absorption of samples was measured at 540 nm on a microplate reader.
Cell hemolysis rate (%) = (OD experimental group − negative control group)/(OD positive control group − negative control group) × 100%.

HUVECs [3] = test: Cell proliferation assay (MTT); assay type: cell-based, human; conditions: 48 h, VEGF-A165 30 ng/mL, n = 3
Protocol: The anti-proliferative effect was evaluated by the MTT assay.
Briefly, HUVECs were seeded into 96-well plates (5 × 10^3 cells/well) and allowed to attach overnight. […] Then, 20 µL of MTT solution was added to each well and further cultured for 4 h under dark conditions. After removing the medium, 150 µL of DMSO was added to dissolve formazan crystals. The 96-well plates were shaken at a low speed for 10 min. The absorbance was measured at 490 nm using a Microplate Reader (Bio-Rad 680, Hercules, CA, USA).

[4] = system: intracranial U87-mCherry-luc glioma; test: Glioma distribution and vascular targeting in vivo (FITC fluorescence, CD31 immunostaining); set-up: species or system nude mice; conditions: 1 h
From the text: The orthotopic U87-mCherry-luc glioma-bearing nude mice model was firstly established. Female nude mice were anesthetized by isoflurane and fixed on a ventricle stereotaxic instrument. U87-mCherry-luc cells were collected after trypsin digestion and then injected into the right striatum of the brain of nude mice. On the 4th day after the surgery, the bioluminescence of the glioma tissue was detected by the IVIS kinetic imaging system (Lumina II; Caliper, MA, USA). The mice were randomly divided into four groups according to the bioluminescence intensity (n = 3). FITC-AT7, FITC-TAT, and FITC-TAT-AT7 (30 mg/Kg) were injected into mice via the tail vein on day 8. The control group was only injected with normal saline. After 1 h, the mice were sacrificed, and the brains were collected and fixed with 4% paraformaldehyde for 24 h. Then, the fixed brains were dehydrated by 15% and 30% sucrose, successively, frozen with O.C.T. embedding reagent, and then cut into frozen brain tissue slices. Then, sections of slices were incubated with rabbit anti-murine CD31 antibody, followed by treatment with Cy5.5-labeled goat anti-rabbit IgG secondary antibody. The slices were further stained with DAPI for 5 min and observed using a confocal microscope.

ERK1/2 = test: Western blot, phosphorylation of ERK1/2; assay type: cell-based, human; conditions: 320 μmol/L, 90 min, VEGF-A165 30 ng/mL, HUVECs, vs control, AT7, TAT, n = 3
Protocol: as §1

HUVECs [5] = test: Hoechst 33,258 staining (apoptosis); assay type: cell-based, human; conditions: 320 μmol/L; 24 h
Protocol: HUVECs were seeded into 6-well culture plates (3 × 10^5 cells/well). […] After discarding the supernatant and washing with cold PBS, the cells were fixed in 4% paraformaldehyde and stained with Hoechst 33,258 for 10 min. Then, the cells were washed with cold PBS and observed using an inverted fluorescence microscope.

NRP-1 = system: NRP-1; set-up: method as in 2 sources, ref 21 = [21]; PMID 17983687; doi:10.1016/j.peptides.2007.09.013; 21. Starzec A. Ladam P. Vassy R. Badache S. Bouchemal N. Navaza A. du Penhoat C.H. Perret G.Y. Structure-function analysis of the antiangiogenic ATWLPPR peptide inhibiting VEGF (165) binding to neurop ||| ref 36 = [36]; PMID 11327725; doi:10.1006/bbrc.2001.4790; 36. Jia H. Lohr M. Jezequel S. Davis D. Shaikh S. Selwood D. Zachary I. Cysteine-rich and basic domain HIV-1 Tat peptides inhibit angiogenesis and induce endothelial cell apoptosis Biochem. Biophys. R; conditions: C-terminal LPPR essential; cited from earlier work
[6] = FITC-labeled peptide 30 mg/kg, tail vein, n = 3

Compound | phosphorylation level of SRC (SRC) | rate of weight loss [1] | toxicity and safety in nude mice ([1]; body weight and physiological status, 14th day) | invasion rate (HUVECs [2]) | phosphorylation level of FAK (FAK) | hemolysis (red blood cells) | hemolysis rate (red blood cells) | inhibition rate on HUVECs' proliferation (HUVECs [3]; 320 μmol/L, MTT, 490 nm) | inhibition of HUVECs' proliferation (HUVECs [3]; 20-320 μmol/L, MTT) | inhibition rate compared with AT7, TAT, TAT+AT7 (HUVECs [3]; concentration higher than 40 μmol/L) | co-localization with glioma blood vessels (CD31) [4, 6] | green (FITC) fluorescence intensity in glioma tissue [4, 6] | accumulation and distribution in the glioma region ([4]; FITC-labeled peptide, intravenous, discussion) | phosphorylation level of ERK1/2 (ERK1/2) | number of apoptotic cells (Hoechst 33,258) (HUVECs [5]) | effect on VEGF-A165 binding to NRP-1 (NRP-1)
CC(C)C[C@H](NC(=O)[C@H](Cc1c[nH]c2ccccc12)NC(=O)[C@@H](NC(=O)[C@H](C)NC(=O)[C@H](CS)NC(=O)[C@H](CCCNC(=N)N)NC(=O)[C@H](CCCNC(=N)N)NC(=O)[C@H](CCCNC(=N)N)NC(=O)[C@H](CCC(N)=O)NC(=O)[C@H](CCCNC(=N)N)NC(=O)[C@H](CCCNC(=N)N)NC(=O)[C@H](CCCCN)NC(=O)[C@H](CCCCN)NC(=O)[C@@H](N)CCCNC(=N)N)[C@@H](C)O)C(=O)N1CCC[C@H]1C(=O)N1CCC[C@H]1C(=O)N[C@@H](CCCNC(=N)N)C(=O)O [TAT-AT7] | significantly inhibited the phosphorylation level | slower than that in the normal saline group | less toxicity and better safety for nude mice | significantly lower than that of the other groups | significantly inhibited the phosphorylation level | did not cause obvious hemolysis | lower than 5% | more than 50% | significantly inhibit proliferation of HUVECs in a concentration-dependent manner | significantly higher than that of the AT7, TAT, and TAT+AT7 groups | obviously co-localized with glioma blood vessels | significantly higher than that in the AT7 and TAT groups | higher accumulation and deeper distribution in the glioma region after intravenous injection compared to TAT and TAT+AT7 | significantly inhibited the phosphorylation level | significantly increased compared to the control, AT7, TAT, and TAT+AT7 groups | 
ATWLPPR [AT7, ATWLPPR] |  |  |  |  |  |  |  |  |  |  |  |  |  |  |  | inhibitory effect of AT7 on VEGF-A165 binding to NRP-1
